Measurements taken from US9023789B2, “Amylin analogs and pharmaceutical compositions thereof” (Novo Nordisk A/S, priority 2012, dated 2015).
Converted amounts (≈) assume the structure as drawn. Like-named read-outs stand apart in the source and are kept apart here. Numbered stars: 1 amine (or outer) side, 2 acyl side, 3 side chain; on linkers, the order of the positions; unused ones are H or OH. Bridge positions count the residues as written; N and C are the ends. Side chains are listed from the residue outwards. Peptide text beside a SMILES is read from it. * marks the point of attachment. C20 diacid = O=C(O)CCCCCCCCCCCCCCCCCCC(=O)*; γGlu = O=C(O)[C@H](CCC(=O)[*:2])N[*:1]; AEEA = NCCOCCOCC(=O)O

What was measured:
Sprague Dawley (SD) rats = assay: ASSAY (I) efficacy testing on appetite (food intake) using an ad libitum fed rat model; assay type: in vivo; details: rat, 30 nmol/kg
Outline: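 Ad libitum fed SD rats (200–250 g) were housed singly on a reversed light/dark cycle and given one 0.01–3 mg/kg dose ip, po or sc just before lights-off, with 5–8 per dose group plus vehicle controls. Food intake was recorded hourly for 7 h, then at 24 h and sometimes 48 h; Grubbs outliers were excluded.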

[1] = ASSAY (III) ThT fibrillation assay for physical stability; assay type: physicochemical
Outline: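 Formulations with 1 μM ThT, pH adjusted as required, incubated at 37 °C with 960 rpm orbital shaking; fluorescence (ex 444/em 485 nm) read every 20 min. Fibrillation reported as mean ThT fluorescence ± SD of 4–8 replicates at time points; polypeptide concentration measured by reverse-phase HPLC before and after, post-centrifugation.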

[2] = ASSAY (IV) determination of solubility; assay type: physicochemical
Outline: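 Polypeptide in water at […] mixed 1:1 with 100 mM buffers of pH 3.0-8.0 (glycylglycine pH 3-5, bistrispropane pH 6-8). Held 18 h at room temperature, then centrifuged; concentration remaining in solution measured by UPLC.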

[3] = bistrispropane buffer, pH 6.5, read-out: Solubility pH 6.5 Concentration
[4] = bistrispropane buffer, pH 7.5, read-out: Solubility pH 7.5 Concentration
[5] = bistrispropane buffer, pH 6.0, read-out: Solubility pH 6.0 Concentration
[6] = bistrispropane buffer, pH 7.0, read-out: Solubility pH 7.0 Concentration
[7] = bistrispropane buffer, pH 8.0, read-out: Solubility pH 8.0 Concentration
[8] = glycylglycine buffer, pH 3.0, read-out: Solubility pH 3.0 Concentration
[9] = glycylglycine buffer, pH 4.0, read-out: Solubility pH 4.0 Concentration
[10] = glycylglycine buffer, pH 5.0, read-out: Solubility pH 5.0 Concentration

Compound | Food intake reduction 0-24 h 30 nmol/kg (%) (Sprague Dawley (SD) rats) | Food intake reduction 24-48 h 30 nmol/kg (%) (Sprague Dawley (SD) rats) | ThT pH 4.0 lag time (h) [1] | solubility at 18 h [2, 3] | solubility at 18 h [2, 4] | solubility at 18 h [2, 5] | solubility at 18 h [2, 6] | solubility at 18 h [2, 7] | solubility at 18 h [2, 8] | solubility at 18 h [2, 9] | solubility at 18 h [2, 10]
CC[C@H](C)[C@H](NC(=O)[C@H](C)NC(=O)CNC(=O)[C@H](Cc1ccccc1)NC(=O)[C@H](CC(N)=O)NC(=O)[C@@H]1CCCN1C(=O)[C@H](CO)NC(=O)[C@H](CO)NC(=O)[C@H](Cc1c[nH]cn1)NC(=O)[C@H](CCCNC(=N)N)NC(=O)[C@H](CC(C)C)NC(=O)[C@H](Cc1ccccc1)NC(=O)[C@H](CC(N)=O)NC(=O)[C@H](C)NC(=O)[C@H](CC(C)C)NC(=O)[C@H](CCCNC(=N)N)NC(=O)[C@H](CCC(N)=O)NC(=O)[C@@H](NC(=O)[C@H](C)NC(=O)[C@@H]1CSSC[C@H](NC(=O)[C@H](CCCCN)NC(=O)CC[C@H](NC(=O)CCCCCCCCCCCCCCCCCCC(=O)O)C(=O)O)C(=O)N[C@@H](CC(N)=O)C(=O)N[C@@H]([C@@H](C)O)C(=O)N[C@@H](C)C(=O)N[C@@H]([C@@H](C)O)C(=O)N1)[C@@H](C)O)C(=O)N1CCC[C@H]1C(=O)N[C@@H](CO)C(=O)N[C@@H](CO)C(=O)N[C@H](C(=O)N[C@@H](CC(N)=O)C(=O)N[C@H](C(=O)NCC(=O)N[C@@H](CCCNC(=N)N)C(=O)N[C@@H](CC(N)=O)C(=O)N[C@H](C(=O)N[C@@H](Cc1ccc(O)cc1)C(N)=O)[C@@H](C)O)C(C)C)[C@@H](C)O [Example 39] ({C20 diacid-γGlu}-KCNTATCATQRLANFLRHSSPNFGAIPSSTNVGRNTY-NH2; disulfide 2-7) | 36% | 8% | 45 h | ≥ 200 µM | ≥ 200 µM | ≥ 200 µM | ≥ 200 µM | ≥ 200 µM | ≥ 200 µM | ≥ 200 µM | ≥ 200 µM
CC[C@H](C)[C@H](NC(=O)[C@H](C)NC(=O)CNC(=O)[C@H](Cc1ccccc1)NC(=O)[C@H](CC(N)=O)NC(=O)[C@@H]1CCCN1C(=O)[C@H](CO)NC(=O)[C@H](CO)NC(=O)[C@H](Cc1c[nH]cn1)NC(=O)[C@H](CCCNC(=N)N)NC(=O)[C@H](CC(C)C)NC(=O)[C@H](Cc1ccccc1)NC(=O)[C@H](CCC(=O)O)NC(=O)[C@H](C)NC(=O)[C@H](CC(C)C)NC(=O)[C@H](CCCNC(=N)N)NC(=O)[C@H](CCC(N)=O)NC(=O)[C@@H](NC(=O)[C@H](C)NC(=O)[C@@H]1CSSC[C@H](NC(=O)[C@@H](N)CCCCNC(=O)CC[C@H](NC(=O)CC[C@H](NC(=O)CCCCCCCCCCCCCCCCCCC(=O)O)C(=O)O)C(=O)O)C(=O)N[C@@H](CC(N)=O)C(=O)N[C@@H]([C@@H](C)O)C(=O)N[C@@H](C)C(=O)N[C@@H]([C@@H](C)O)C(=O)N1)[C@@H](C)O)C(=O)N1CCC[C@H]1C(=O)N[C@@H](CO)C(=O)N[C@@H](CO)C(=O)N[C@H](C(=O)N[C@@H](CC(N)=O)C(=O)N[C@H](C(=O)NCC(=O)N[C@@H](CCCNC(=N)N)C(=O)N[C@@H](CC(N)=O)C(=O)N[C@H](C(=O)N[C@@H](Cc1ccc(O)cc1)C(N)=O)[C@@H](C)O)C(C)C)[C@@H](C)O [Example 88] (H-K([γGlu-γGlu-C20 diacid])CNTATCATQRLAEFLRHSSPNFGAIPSSTNVGRNTY-NH2; disulfide 2-7) | 31% | 15% | 45 h | ≥ 200 µM | 113 µM (≈ 519 µg/mL) | ≥ 200 µM | 162 µM (≈ 744 µg/mL) | 108 µM (≈ 496 µg/mL) | ≥ 200 µM | ≥ 200 µM | ≥ 200 µM
CC[C@H](C)[C@H](NC(=O)[C@H](C)NC(=O)CNC(=O)[C@H](Cc1ccccc1)NC(=O)[C@H](CC(N)=O)NC(=O)[C@@H]1CCCN1C(=O)[C@H](CO)NC(=O)[C@H](CO)NC(=O)[C@H](Cc1c[nH]cn1)NC(=O)[C@H](CCCNC(=N)N)NC(=O)[C@H](CC(C)C)NC(=O)[C@H](Cc1ccccc1)NC(=O)[C@H](CC(N)=O)NC(=O)[C@H](C)NC(=O)[C@H](CC(C)C)NC(=O)[C@H](CCCNC(=N)N)NC(=O)[C@H](CCC(N)=O)NC(=O)[C@@H](NC(=O)[C@H](C)NC(=O)[C@@H]1CSSC[C@H](NC(=O)[C@@H](N)CCCCNC(=O)COCCOCCNC(=O)CC[C@H](NC(=O)CCCCCCCCCCCCCCCCCCC(=O)O)C(=O)O)C(=O)N[C@@H](CC(N)=O)C(=O)N[C@@H]([C@@H](C)O)C(=O)N[C@@H](C)C(=O)N[C@@H]([C@@H](C)O)C(=O)N1)[C@@H](C)O)C(=O)N1CCC[C@H]1C(=O)N[C@@H](CO)C(=O)N[C@@H](CO)C(=O)N[C@H](C(=O)N[C@@H](CC(N)=O)C(=O)N[C@H](C(=O)NCC(=O)N[C@@H](Cc1c[nH]cn1)C(=O)N[C@@H](CC(N)=O)C(=O)N[C@H](C(=O)N[C@@H](Cc1ccc(O)cc1)C(N)=O)[C@@H](C)O)C(C)C)[C@@H](C)O [Example 76] (H-K([AEEA-γGlu-C20 diacid])CNTATCATQRLANFLRHSSPNFGAIPSSTNVGHNTY-NH2; disulfide 2-7; N-terminus assumed) | 31% | 2% | 22 h | ≥ 200 µM | ≥ 200 µM | ≥ 200 µM | ≥ 200 µM | 140 µM (≈ 638 µg/mL) | ≥ 200 µM | ≥ 200 µM | ≥ 200 µM
CC[C@H](C)[C@H](NC(=O)[C@H](C)NC(=O)CNC(=O)[C@H](Cc1ccccc1)NC(=O)[C@H](CC(N)=O)NC(=O)[C@@H]1CCCN1C(=O)[C@H](CO)NC(=O)[C@H](CO)NC(=O)[C@H](Cc1c[nH]cn1)NC(=O)[C@H](CCCNC(=N)N)NC(=O)[C@H](CC(C)C)NC(=O)[C@H](Cc1ccccc1)NC(=O)[C@H](CCCNC(=N)N)NC(=O)[C@H](C)NC(=O)[C@H](CC(C)C)NC(=O)[C@H](CCCNC(=N)N)NC(=O)[C@H](CCC(N)=O)NC(=O)[C@@H](NC(=O)[C@H](C)NC(=O)[C@@H]1CSSC[C@H](NC(=O)[C@@H](N)CCCCNC(=O)COCCOCCNC(=O)CC[C@H](NC(=O)CCCCCCCCCCCCCCCCCCC(=O)O)C(=O)O)C(=O)N[C@@H](CC(N)=O)C(=O)N[C@@H]([C@@H](C)O)C(=O)N[C@@H](C)C(=O)N[C@@H]([C@@H](C)O)C(=O)N1)[C@@H](C)O)C(=O)N1CCC[C@H]1C(=O)N[C@@H](CO)C(=O)N[C@@H](CO)C(=O)N[C@H](C(=O)N1CCC[C@H]1C(=O)N[C@H](C(=O)NCC(=O)N[C@@H](CO)C(=O)N[C@@H](CC(N)=O)C(=O)N[C@H](C(=O)N[C@@H](Cc1ccc(O)cc1)C(N)=O)[C@@H](C)O)C(C)C)[C@@H](C)O [Example 64] (H-K([AEEA-γGlu-C20 diacid])CNTATCATQRLARFLRHSSPNFGAIPSSTPVGSNTY-NH2; disulfide 2-7; N-terminus assumed) | 4% | 3% | 45 h | ≥ 200 µM | ≥ 200 µM | ≥ 200 µM | ≥ 200 µM | ≥ 200 µM | ≥ 200 µM | ≥ 200 µM | ≥ 200 µM
CC[C@H](C)[C@H](NC(=O)[C@H](C)NC(=O)CNC(=O)[C@H](Cc1ccccc1)NC(=O)[C@H](CC(N)=O)NC(=O)[C@@H]1CCCN1C(=O)[C@H](CO)NC(=O)[C@H](CO)NC(=O)[C@H](Cc1c[nH]cn1)NC(=O)[C@H](CCCNC(=N)N)NC(=O)[C@H](CC(C)C)NC(=O)[C@H](Cc1ccccc1)NC(=O)[C@H](CC(N)=O)NC(=O)[C@H](C)NC(=O)[C@H](CC(C)C)NC(=O)[C@H](CCCNC(=N)N)NC(=O)[C@H](CCC(N)=O)NC(=O)[C@@H](NC(=O)[C@H](C)NC(=O)[C@@H]1CSSC[C@H](NC(=O)[C@@H](N)CCCCNC(=O)COCCOCCNC(=O)CC[C@H](NC(=O)CCCCCCCCCCCCCCCCCCC(=O)O)C(=O)O)C(=O)N[C@@H](CC(N)=O)C(=O)N[C@@H]([C@@H](C)O)C(=O)N[C@@H](C)C(=O)N[C@@H]([C@@H](C)O)C(=O)N1)[C@@H](C)O)C(=O)N1CCC[C@H]1C(=O)N[C@@H](CO)C(=O)N[C@@H](CO)C(=O)N[C@H](C(=O)N1CCC[C@H]1C(=O)N[C@H](C(=O)NCC(=O)N[C@@H](CO)C(=O)N[C@@H](Cc1c[nH]cn1)C(=O)N[C@H](C(=O)N[C@@H](Cc1ccc(O)cc1)C(N)=O)[C@@H](C)O)C(C)C)[C@@H](C)O [Example 57] (H-K([AEEA-γGlu-C20 diacid])CNTATCATQRLANFLRHSSPNFGAIPSSTPVGSHTY-NH2; disulfide 2-7; N-terminus assumed) | 62% | 16% | 45 h | ≥ 200 µM | 142 µM (≈ 644 µg/mL) | ≥ 200 µM | ≥ 200 µM | 101 µM (≈ 458 µg/mL) | ≥ 200 µM | ≥ 200 µM | ≥ 200 µM
